Assay results as given in patent US11059795B2, “Androgen receptor modulators and methods for their use” (ESSA Pharma, Inc., priority 2018, dated 2021).

Key:
androgen receptor (AR) = molecular target: T1, androgen receptor (AR) (Homo sapiens, UniProt P10275, T878A); test: Androgen-induced PSA (6.1 kb)-luciferase reporter assay in LNCaP cells; assay type: cell-based; conditions: LNCaP cells transfected with PSA (6.1 kb)-luciferase reporter, R1881 1 nM, 24 h; read-out: PSA-Luc IC50 Range
T1 construct: LNCaP cells were transiently transfected with the PSA (6.1 kb)-luciferase reporter for 24 h; endogenous in cells; host or cells: LNCaP
T1 sequence (P10275 1-920 T878A): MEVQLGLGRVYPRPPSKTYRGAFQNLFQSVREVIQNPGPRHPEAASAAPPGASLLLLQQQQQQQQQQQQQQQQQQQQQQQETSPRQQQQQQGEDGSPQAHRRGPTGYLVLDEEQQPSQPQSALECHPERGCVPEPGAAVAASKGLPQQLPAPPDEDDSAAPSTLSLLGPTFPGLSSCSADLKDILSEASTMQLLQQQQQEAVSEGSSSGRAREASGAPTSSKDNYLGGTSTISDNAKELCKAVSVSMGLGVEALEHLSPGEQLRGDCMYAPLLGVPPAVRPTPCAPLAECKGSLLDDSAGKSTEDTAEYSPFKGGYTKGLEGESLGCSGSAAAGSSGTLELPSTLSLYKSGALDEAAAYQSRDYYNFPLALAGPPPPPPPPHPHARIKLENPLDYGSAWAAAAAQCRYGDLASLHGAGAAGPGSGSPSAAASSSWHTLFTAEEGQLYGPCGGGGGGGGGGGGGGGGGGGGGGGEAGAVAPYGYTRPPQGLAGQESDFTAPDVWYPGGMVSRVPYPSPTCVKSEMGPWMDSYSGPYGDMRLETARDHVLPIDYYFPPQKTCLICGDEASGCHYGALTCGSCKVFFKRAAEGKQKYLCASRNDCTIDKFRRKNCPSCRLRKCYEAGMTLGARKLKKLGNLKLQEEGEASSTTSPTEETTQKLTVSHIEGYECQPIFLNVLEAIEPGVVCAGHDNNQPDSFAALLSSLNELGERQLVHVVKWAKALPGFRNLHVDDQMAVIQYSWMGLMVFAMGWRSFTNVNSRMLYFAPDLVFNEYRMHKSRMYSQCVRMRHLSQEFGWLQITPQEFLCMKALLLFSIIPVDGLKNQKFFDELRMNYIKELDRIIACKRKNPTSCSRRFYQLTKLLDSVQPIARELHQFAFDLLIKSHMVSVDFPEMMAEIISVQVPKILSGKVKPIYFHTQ
Procedure, shortened: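 LNCaP cells carrying a PSA (6.1 kb) promoter-luciferase reporter with AREs; androgen-induced firefly luciferase read from lysates for 10 s. RLU normalized to protein content; IC50 calculated from the normalized data.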

[1] = Microsomal stability assay, mouse liver microsomes; assay type: in vitro ADME; conditions: mouse, liver microsomes, pH 7.4, mouse liver microsomes, 1 μM compound, 0.5 mg/mL protein, 37° C.; read-out: MLM +30/− NADPH: Clint (μL/min/mg protein)
Procedure, shortened: (§1)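 Compound at 1 μM was incubated at 37° C with 0.5 mg/mL liver microsomes and 1 mM NADPH and/or 1 mM UDPGA (with alamethicin) in 100 mM potassium phosphate pH 7.4, 3 mM MgCl2. Samples were taken at 0, 15, 30 and 60 min and measured by LC/MS/MS. t½ came from compound loss relative to 0 min, and Clint was scaled with 45 mg microsomal protein/g liver.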

[2] = Microsomal stability assay, human liver microsomes; assay type: in vitro ADME; conditions: pH 7.4, 1 μM compound, 0.5 mg/mL protein, 37° C., read-out: HLM +/− NADPH: Clint (μL/min/mg protein)
Procedure, shortened: as §1

[3] = Hepatocyte stability assay, mouse hepatocytes; assay type: in vitro ADME; conditions: mouse, cryopreserved hepatocytes, 1 μM compound, 0.5 million cells/mL, 37° C., read-out: MH +/− NADPH: Clint (μL/min/million cells)
Procedure, shortened: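 Cryopreserved rat, human or mouse hepatocytes at 0.5 million cells/mL in DMEM with 1 μM compound, 37° C, sampled at 0, 60, 120 and 180 min and quenched with acetonitrile/formic acid. Parent loss vs 0-min by LC/MS/MS gave t½, and Clint = 0.693/t½ × mL incubation/million cells.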

IC50 (androgen receptor (AR)) | microsomal CLint at 1 μM [1] | microsomal CLint at 1 μM [2] | hepatocyte CLint at 1 μM [3] | SMILES
< 0.5 µM | < 12 µL/min/mg | < 12 µL/min/mg | ≥ 18 µL/min/1e6 cells | CC(C)(c1ccc(OCc2cnc(S(C)(=O)=O)s2)cc1)c1cc(Cl)c(OCCCl)c(C#N)c1 [Compound A149]
0.5 to 2 µM | 12 to 48 µL/min/mg | < 12 µL/min/mg | 4 to 18 µL/min/1e6 cells | CC(C)(c1ccc(OCc2ncc(S(C)(=O)=O)o2)cc1)c1cc(Cl)c(OCCCl)c(C#N)c1 [Compound A153]
< 0.5 µM | ≥ 48 µL/min/mg | 12 to 48 µL/min/mg | 4 to 18 µL/min/1e6 cells | CC(C)(c1ccc(OCc2coc(N)n2)cc1)c1cc(Cl)c(OCCCl)c(C#N)c1 [Compound A155]
< 0.5 µM | 12 to 48 µL/min/mg | 12 to 48 µL/min/mg | ≥ 18 µL/min/1e6 cells | COC(=O)Nc1nc(COc2ccc(C(C)(C)c3cc(Cl)c(OCCCl)c(C#N)c3)cc2)co1 [Compound A156]
< 0.5 µM | ≥ 48 µL/min/mg | 12 to 48 µL/min/mg | ≥ 18 µL/min/1e6 cells | Cc1nc(N)cc(COc2ccc(C(C)(C)c3cc(Cl)c(OCCCl)c(C#N)c3)cc2)n1 [Compound A162]
0.5 to 2 µM | < 12 µL/min/mg | < 12 µL/min/mg | < 4 µL/min/1e6 cells | CC(C)(c1ccc(OCc2cc(CN)nc(NS(C)(=O)=O)n2)cc1)c1cc(Cl)c(OCCCl)c(C#N)c1 [Compound A164, N-(4-(aminomethyl)-6-((4-(2-(3-chloro-4-(2-chloroethoxy)-5-cyanophenyl)propan-2-yl)phenoxy)methyl)pyrimidin-2-yl)methanesulfonamide]
< 0.5 µM | < 12 µL/min/mg | < 12 µL/min/mg | 4 to 18 µL/min/1e6 cells | CC(C)(c1ccc(OCc2ccc(S(C)(=O)=O)o2)cc1)c1cc(Cl)c(OCCCl)c(C#N)c1 [Compound A168, 3-chloro-2-(2-chloroethoxy)-5-(2-(4-((5-(methylsulfonyl)furan-2-yl)methoxy)phenyl)propan-2-yl)benzonitrile]
0.5 to 2 µM | < 12 µL/min/mg | < 12 µL/min/mg | 4 to 18 µL/min/1e6 cells | CC(C)(c1ccc(OCc2nc(C(N)=O)cs2)cc1)c1cc(Cl)c(OCCCl)c(C#N)c1 [Compound A171, 2-((4-(2-(3-chloro-4-(2-chloroethoxy)-5-cyanophenyl)propan-2-yl)phenoxy)methyl)thiazole-4-carboxamide]
< 0.5 µM | < 12 µL/min/mg | < 12 µL/min/mg | < 4 µL/min/1e6 cells | CC(C)(c1ccc(OCc2nc(C#N)cs2)cc1)c1cc(Cl)c(OCCCl)c(C#N)c1 [Compound A172, 2-((4-(2-(3-chloro-4-(2-chloroethoxy)-5-cyanophenyl)propan-2-yl)phenoxy)methyl)thiazole-4-carbonitrile]
> 2 µM | < 12 µL/min/mg | < 12 µL/min/mg | < 4 µL/min/1e6 cells | CC(C)(c1ccc(OCc2nccc(NS(C)(=O)=O)n2)cc1)c1cc(Cl)c(OCCCl)c(C#N)c1 [Compound A184, N-(2-((4-(2-(3-chloro-4-(2-chloroethoxy)-5-cyanophenyl)propan-2-yl)phenoxy)methyl)pyrimidin-4-yl)methanesulfonamide]
< 0.5 µM | 12 to 48 µL/min/mg | < 12 µL/min/mg | 4 to 18 µL/min/1e6 cells | CC(C)(c1ccc(OCc2cncc(NS(C)(=O)=O)n2)cc1)c1cc(Cl)c(OCCCl)c(C#N)c1 [Compound A185, N-(6-((4-(2-(3-chloro-4-(2-chloroethoxy)-5-cyanophenyl)propan-2-yl)phenoxy)methyl)pyrazin-2-yl)methanesulfonamide]
0.5 to 2 µM | ≥ 48 µL/min/mg | < 12 µL/min/mg | ≥ 18 µL/min/1e6 cells | CC(C)(c1ccc(OCc2nc(NS(C)(=O)=O)nc3c2CCOC3)cc1)c1cc(Cl)c(OCCCl)c(C#N)c1 [Compound A190]
< 0.5 µM | 12 to 48 µL/min/mg | 12 to 48 µL/min/mg | ≥ 18 µL/min/1e6 cells | CC(C)(c1ccc(OCc2cnc(CN)o2)cc1)c1cc(Cl)c(OCCCl)c(C#N)c1 [Compound A192]
